Reference: patent publication US20250230193A1, “CYCLIC COMPOUND HAVING SELECTIVE KRAS INHIBITORY EFFECT ON HRAS AND NRAS” (CHUGAI SEIYAKU KABUSHIKI KAISHA, priority 2022, published 2025)
*1 amine or outer side, *2 acyl side, *3 side chain or, on linkers, in order; H or OH if unused. Where a SMILES comes first, the peptide text is derived from it. Bridges are numbered along the chain shown (N, C = ends). [ ]: non-standard residue; d: D form. The star is where a group is joined. hPhe(3-Cl-4-CF3) = N[C@@H](CCc1ccc(C(F)(F)F)c(Cl)c1)C(=O)O; X20 = CCCN([C@@H](CC1CCC(F)(F)CC1)C(=O)[*:2])[*:1]; NMeGly(cPent) = CN[C@H](C(=O)O)C1CCCC1; NMeD = CN[C@@H](CC(=O)O)C(=O)O; NMeL = CN[C@@H](CC(C)C)C(=O)O; Morpholide = C1CN(*)CCO1; NMeA = CN[C@@H](C)C(=O)O; Ac5c = NC1(C(=O)O)CCCC1; Aze = O=C(O)[C@@H]1CCN1; Sar = CNCC(=O)O

Columns and labels:
[1] = target: GDP-bound NRAS wild-type protein (Homo sapiens, UniProt P01111); experiment: Binding to NRAS by surface plasmon resonance (SPR), Single Cycle Kinetics; settings: KD ratio NRAS/KRAS, SPR
Sequence of GDP-bound NRAS wild-type protein (P01111 whole entry): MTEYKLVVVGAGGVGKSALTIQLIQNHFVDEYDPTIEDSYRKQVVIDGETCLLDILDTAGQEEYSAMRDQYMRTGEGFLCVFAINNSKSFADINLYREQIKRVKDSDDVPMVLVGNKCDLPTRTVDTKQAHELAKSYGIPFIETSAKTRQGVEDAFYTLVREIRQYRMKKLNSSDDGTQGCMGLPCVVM

[2] = target: GDP-bound HRAS wild-type protein (Homo sapiens, UniProt P01112); experiment: Binding to HRAS by surface plasmon resonance (SPR), Single Cycle Kinetics; settings: KD ratio HRAS/KRAS, SPR
Sequence of GDP-bound HRAS wild-type protein (P01112 whole entry): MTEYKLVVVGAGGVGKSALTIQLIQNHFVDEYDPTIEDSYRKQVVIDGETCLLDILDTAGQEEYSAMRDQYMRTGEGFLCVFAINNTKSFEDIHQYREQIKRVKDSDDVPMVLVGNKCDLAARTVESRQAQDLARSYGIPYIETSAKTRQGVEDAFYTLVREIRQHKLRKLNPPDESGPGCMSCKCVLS

Structure (SMILES)	NRAS/KRAS (ratio of KD value with respect to GDP-bound NRAS wild-type protein to KD value with respect to KRAS) [1]	HRAS/KRAS (ratio of KD value with respect to GDP-bound HRAS wild-type protein to KD value with respect to KRAS) [2]
CCCN1C(=O)CN(C)C(=O)CN(C)C(=O)[C@H]([C@@H](C)CC)NC(=O)[C@H](CC(C)C)N(C)C(=O)C[C@@H](C(=O)N2CCOCC2)N(C)C(=O)[C@H](C2CCCC2)N(C)C(=O)C2(CCCC2)NC(=O)[C@@H]2CCCN2C(=O)[C@H](CCc2ccc(C(F)(F)F)c(Cl)c2)NC(=O)CN(C)C(=O)[C@@H]1CC1CCC(F)(F)CC1 [PP0526] ([NMeL]I[Sar][Sar][X20][Sar][hPhe(3-Cl-4-CF3)]P[Ac5c][NMeGly(cPent)][NMeD]-Morpholide; lactam N-11)	B (a compound having 3 or more and less than 10 is denoted as B)	C (A compound having a KD ratio of 0.1 or more and less than 3 is denoted as C)
CCCN1C(=O)[C@@H]2CCN2C(=O)[C@H](C)N(C)C(=O)[C@H]([C@@H](C)CC)NC(=O)[C@H](CC(C)C)N(C)C(=O)C[C@@H](C(=O)N2CCOCC2)N(C)C(=O)[C@H](C2CCCC2)N(C)C(=O)C2(CCCC2)NC(=O)[C@@H]2CCCN2C(=O)[C@H](CCc2ccc(C(F)(F)F)c(Cl)c2)NC(=O)CN(C)C(=O)[C@@H]1CC1CCC(F)(F)CC1 [PP0527] ([NMeL]I[NMeA][Aze][X20][Sar][hPhe(3-Cl-4-CF3)]P[Ac5c][NMeGly(cPent)][NMeD]-Morpholide; lactam N-11)	C (A compound having a KD ratio of 0.1 or more and less than 3 is denoted as C)	C (A compound having a KD ratio of 0.1 or more and less than 3 is denoted as C)
CC[C@H](C)[C@@H]1NC(=O)[C@H](CC(C)C)N(C)C(=O)C[C@@H](C(=O)N2CCOCC2)N(C)C(=O)[C@H](C2CCCC2)N(C)C(=O)C2(CCCC2)NC(=O)[C@@H]2CCCN2C(=O)[C@H](CCc2ccc(C(F)(F)F)c(Cl)c2)NC(=O)CN(C)C(=O)[C@H](Cc2ccccc2)N2CC=CC[C@@H](C2=O)N(C)C(=O)CN(C)C1=O [PP0528]	C (A compound having a KD ratio of 0.1 or more and less than 3 is denoted as C)	C (A compound having a KD ratio of 0.1 or more and less than 3 is denoted as C)
CC[C@H](C)[C@@H]1NC(=O)[C@H](CC(C)C)N(C)C(=O)C[C@@H](C(=O)N2CCOCC2)N(C)C(=O)[C@H](C2CCCC2)N(C)C(=O)C2(CCCC2)NC(=O)[C@@H]2CCCN2C(=O)[C@H](CCc2ccc(C(F)(F)F)c(Cl)c2)NC(=O)CN(C)C(=O)[C@H](Cc2ccccc2)N2CCCC[C@@H](C2=O)N(C)C(=O)CN(C)C1=O [PP0529]	C (A compound having a KD ratio of 0.1 or more and less than 3 is denoted as C)	B (a compound having 3 or more and less than 10 is denoted as B)
CC[C@H](C)[C@@H]1NC(=O)[C@H](CC(C)C)N(C)C(=O)C[C@@H](C(=O)N2CCOCC2)N(C)C(=O)[C@H](C2CCCC2)N(C)C(=O)C2(CCCC2)NC(=O)[C@@H]2CCCN2C(=O)[C@H](CCc2ccc(C(F)(F)F)c(Cl)c2)NC(=O)CN(C)C(=O)[C@H](Cc2ccc(F)cc2)N2CCCC[C@@H](C2=O)N(C)C(=O)CN(C)C1=O [PP0530]	C (A compound having a KD ratio of 0.1 or more and less than 3 is denoted as C)	B (a compound having 3 or more and less than 10 is denoted as B)
CC[C@H](C)[C@@H]1NC(=O)[C@H](CC(C)C)N(C)C(=O)C[C@@H](C(=O)N2CCOCC2)N(C)C(=O)[C@H](C2CCCC2)N(C)C(=O)C2(CCCC2)NC(=O)[C@@H]2CCCN2C(=O)[C@H](CCc2ccc(C(F)(F)F)c(Cl)c2)NC(=O)CN(C)C(=O)[C@H](Cc2ccc(Cl)cc2)N2CCCC[C@@H](C2=O)N(C)C(=O)CN(C)C1=O [PP0532]	C (A compound having a KD ratio of 0.1 or more and less than 3 is denoted as C)	B (a compound having 3 or more and less than 10 is denoted as B)
CC[C@H](C)[C@@H]1NC(=O)[C@H](CC(C)C)N(C)C(=O)C[C@@H](C(=O)N2CCOCC2)N(C)C(=O)[C@H](C2CCCC2)N(C)C(=O)C2(CCCC2)NC(=O)[C@@H]2CCCN2C(=O)[C@H](CCc2ccc(C(F)(F)F)c(Cl)c2)NC(=O)CN(C)C(=O)[C@H](Cc2ccc(Cl)cc2)N2CC=CC[C@@H](C2=O)N(C)C(=O)CN(C)C1=O [PP0533]	C (A compound having a KD ratio of 0.1 or more and less than 3 is denoted as C)	C (A compound having a KD ratio of 0.1 or more and less than 3 is denoted as C)
CC[C@H](C)[C@@H]1NC(=O)[C@H](CC(C)C)N(C)C(=O)C[C@@H](C(=O)N2CCOCC2)N(C)C(=O)[C@H](C2CCCC2)N(C)C(=O)C2(CCCC2)NC(=O)[C@@H]2CCCN2C(=O)[C@H](CCc2ccc(C(F)(F)F)c(Cl)c2)NC(=O)CN(C)C(=O)[C@H](Cc2ccc(OC)cc2)N2CCCC[C@@H](C2=O)N(C)C(=O)CN(C)C1=O [PP0534]	B (a compound having 3 or more and less than 10 is denoted as B)	B (a compound having 3 or more and less than 10 is denoted as B)
CC[C@H](C)[C@@H]1NC(=O)[C@H](CC(C)C)N(C)C(=O)C[C@@H](C(=O)N2CCOCC2)N(C)C(=O)[C@H](C2CCCC2)N(C)C(=O)C2(CCCC2)NC(=O)[C@@H]2CCCN2C(=O)[C@H](CCc2ccc(C(F)(F)F)c(Cl)c2)NC(=O)CN(C)C(=O)[C@H](Cc2ccc(OC)cc2)N2CC=CC[C@@H](C2=O)N(C)C(=O)CN(C)C1=O [PP0535]	C (A compound having a KD ratio of 0.1 or more and less than 3 is denoted as C)	B (a compound having 3 or more and less than 10 is denoted as B)
CC[C@H](C)[C@@H]1NC(=O)[C@H](CC(C)C)N(C)C(=O)C[C@@H](C(=O)N2CCOCC2)N(C)C(=O)[C@H](C2CCCC2)N(C)C(=O)C2(CCCC2)NC(=O)[C@@H]2CCCN2C(=O)[C@H](CCc2ccc(C(F)(F)F)c(Cl)c2)NC(=O)CN(C)C(=O)[C@H](Cc2ccc(OC(F)(F)F)cc2)N2CCCC[C@@H](C2=O)N(C)C(=O)CN(C)C1=O [PP0536]	B (a compound having 3 or more and less than 10 is denoted as B)	B (a compound having 3 or more and less than 10 is denoted as B)
CC[C@H](C)[C@@H]1NC(=O)[C@H](CC(C)C)N(C)C(=O)C[C@@H](C(=O)N2CCOCC2)N(C)C(=O)[C@H](C2CCCC2)N(C)C(=O)C2(CCCC2)NC(=O)[C@@H]2CCCN2C(=O)[C@H](CCc2ccc(C(F)(F)F)c(Cl)c2)NC(=O)CN(C)C(=O)[C@H](Cc2ccc(OC(F)(F)F)cc2)N2CC=CC[C@@H](C2=O)N(C)C(=O)CN(C)C1=O [PP0537]	C (A compound having a KD ratio of 0.1 or more and less than 3 is denoted as C)	C (A compound having a KD ratio of 0.1 or more and less than 3 is denoted as C)
CC[C@H](C)[C@@H]1NC(=O)[C@H](CC(C)C)N(C)C(=O)C[C@@H](C(=O)N2CCOCC2)N(C)C(=O)[C@H](C2CCCC2)N(CC)C(=O)C2(CCCC2)NC(=O)[C@@H]2CCCN2C(=O)[C@H](CCc2cc(F)c(C(F)(F)F)c(F)c2)NC(=O)CN(C)C(=O)[C@H](Cc2ccc(C(F)(F)F)cc2)N2CCCC[C@@H](C2=O)N(C)C(=O)CN(C)C1=O [PP0538]	B (a compound having 3 or more and less than 10 is denoted as B)	B (a compound having 3 or more and less than 10 is denoted as B)
CC[C@H](C)[C@@H]1NC(=O)[C@H](CC(C)C)N(C)C(=O)C[C@@H](C(=O)N2CCOCC2)N(CC)C(=O)[C@H](C2CCCC2)N(C)C(=O)C2(CCCC2)NC(=O)[C@@H]2CCCN2C(=O)[C@H](CCc2cc(F)c(C(F)(F)F)c(F)c2)NC(=O)CN(C)C(=O)[C@H](Cc2ccc(C(F)(F)F)cc2)N2CCCC[C@@H](C2=O)N(C)C(=O)CN(C)C1=O [PP0539]	B (a compound having 3 or more and less than 10 is denoted as B)	B (a compound having 3 or more and less than 10 is denoted as B)
CC[C@H](C)[C@@H]1NC(=O)[C@H](CC(C)C)N(C)C(=O)C[C@@H](C(=O)N2CCOCC2)N(C)C(=O)[C@H](C2CCCC2)NC(=O)C2(CCCC2)NC(=O)[C@@H]2CCCN2C(=O)[C@H](CCc2cc(F)c(C(F)(F)F)c(F)c2)NC(=O)CN(C)C(=O)[C@H](Cc2ccc(C(F)(F)F)cc2)N2CCCC[C@@H](C2=O)N(C)C(=O)CN(C)C1=O [PP0540]	B (a compound having 3 or more and less than 10 is denoted as B)	B (a compound having 3 or more and less than 10 is denoted as B)
CC[C@H](C)[C@@H]1NC(=O)[C@H](CC(C)C)N(C)C(=O)C[C@@H](C(=O)N2CCOCC2)NC(=O)[C@H](C2CCCC2)N(C)C(=O)C2(CCCC2)NC(=O)[C@@H]2CCCN2C(=O)[C@H](CCc2cc(F)c(C(F)(F)F)c(F)c2)NC(=O)CN(C)C(=O)[C@H](Cc2ccc(C(F)(F)F)cc2)N2CCCC[C@@H](C2=O)N(C)C(=O)CN(C)C1=O [PP0541]	B (a compound having 3 or more and less than 10 is denoted as B)	B (a compound having 3 or more and less than 10 is denoted as B)
